According to PubChem BioAssay AID248 (DTP/NCI, 2004):
“And” between values parts separate entries of the source, which are not always exact repeats. Identical values can stand only once. Toxic doses and inconclusive results are not listed. No stated cut-off is given here; in the data, active means T/C of 150% or more; inactive means T/C below 125%.

Tested on: L1210 leukemia ip in BDF1 mice, survival T/C
Test: NCI In Vivo Anticancer Drug Screen. Data for tumor model L1210 Leukemia (intraperitoneal) in B6D2F1 (BDF1) mice
Conditions: endpoint: mean survival time, higher = longer survival
Summary of the method: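 Tumor cells were implanted, animals were treated, and survival was followed. The result divides the treated measurement by the vehicle-control measurement.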

[1] = dose: 100.0 mg/kg/injection, schedule: Q01DX009 (ip), vehicle: saline with Tween-80
[2] = dose: 100.0 mg/kg/injection, schedule: Q04DX003 (ip), vehicle: saline with Tween-80
[3] = dose: 100.0 mg/kg/injection, schedule: Q04DX003 (ip), vehicle: saline
[4] = dose: 200.0 mg/kg/injection, schedule: Q04DX003 (ip), vehicle: saline with Tween-80
[5] = dose: 200.0 mg/kg/injection, schedule: Q04DX003 (ip), vehicle: saline
[6] = dose: 400.0 mg/kg/injection, schedule: Q04DX003 (ip), vehicle: saline with Tween-80
[7] = dose: 400.0 mg/kg/injection, schedule: Q04DX003 (ip), vehicle: saline
[8] = dose: 200.0 mg/kg/injection, schedule: Q01DX009 (ip), vehicle: Klucel (hydroxypropylcellulose) (HPC)
[9] = dose: 75.0 mg/kg/injection, schedule: Q01DX001 (ip), vehicle: saline
[10] = dose: 150.0 mg/kg/injection, schedule: Q01DX001 (ip), vehicle: saline
[11] = dose: 100.0 mg/kg/injection, schedule: Q01DX009 (ip), vehicle: Klucel (hydroxypropylcellulose) (HPC)
[12] = dose: 100.0 mg/kg/injection, schedule: Q04DX003 (ip), vehicle: Klucel (hydroxypropylcellulose) (HPC)
[13] = dose: 200.0 mg/kg/injection, schedule: Q04DX003 (ip), vehicle: Klucel (hydroxypropylcellulose) (HPC)
[14] = dose: 400.0 mg/kg/injection, schedule: Q01DX009 (ip), vehicle: Klucel (hydroxypropylcellulose) (HPC)
[15] = dose: 400.0 mg/kg/injection, schedule: Q04DX003 (ip), vehicle: Klucel (hydroxypropylcellulose) (HPC)
[16] = dose: 100.0 mg/kg/injection, schedule: Q01DX009 (ip), vehicle: saline
[17] = dose: 100.0 mg/kg/injection, schedule: Q01DX001 (ip), vehicle: saline
[18] = dose: 200.0 mg/kg/injection, schedule: Q01DX001 (ip), vehicle: saline

Measured: T/C

Cc1ncc2c(=O)[nH]ccn12
inactive: dose: 100.0 mg/kg/injection, schedule: Q04DX003 (ip), vehicle: water 103 % of control | dose: 200.0 mg/kg/injection, schedule: Q04DX003 (ip), vehicle: water 103 % of control | dose: 400.0 mg/kg/injection, schedule: Q04DX003 (ip), vehicle: water 103 % of control

O=C(Nc1ccc(S(=O)(=O)F)cc1)OCc1ccc([N+](=O)[O-])cc1
inactive: dose: 100.0 mg/kg/injection, schedule: Q01DX001 (ip), vehicle: saline with Tween-80 105 % of control | dose: 200.0 mg/kg/injection, schedule: Q01DX001 (ip), vehicle: saline with Tween-80 95 % of control | dose: 400.0 mg/kg/injection, schedule: Q01DX001 (ip), vehicle: saline with Tween-80 100 % of control

O=c1[nH]c(SCc2cccc([N+](=O)[O-])c2)nc2nc[nH]c12
inactive: dose: 50.0 mg/kg/injection, schedule: Q01DX001 (ip), vehicle: Klucel (hydroxypropylcellulose) (HPC) 96 % of control | dose: 100.0 mg/kg/injection, schedule: Q01DX001 (ip), vehicle: Klucel (hydroxypropylcellulose) (HPC) 100 % of control | dose: 200.0 mg/kg/injection, schedule: Q01DX001 (ip), vehicle: Klucel (hydroxypropylcellulose) (HPC) 107 % of control

CC1C(=O)CC(C)(C)CC1=O
inactive: [1] 105 % of control | dose: 200.0 mg/kg/injection, schedule: Q01DX009 (ip), vehicle: saline with Tween-80 109 % of control | dose: 400.0 mg/kg/injection, schedule: Q01DX009 (ip), vehicle: saline with Tween-80 104 % of control

N#CCC(=O)[O][Sn]([c]1ccccc1)([c]1ccccc1)[c]1ccccc1
inactive: dose: 1.56 mg/kg/injection, schedule: Q01DX009 (ip), vehicle: saline with Tween-80 99 % of control | dose: 3.12 mg/kg/injection, schedule: Q01DX009 (ip), vehicle: saline with Tween-80 92 % of control | dose: 6.25 mg/kg/injection, schedule: Q01DX009 (ip), vehicle: saline with Tween-80 89 % of control

CCC(C(N)=O)N1C(=O)C2C3CCC(C3)C2C1=O (stereo not given)
inactive: [2] 90 % of control | [3] 107 % of control | [4] 100 % of control | [5] 107 % of control | [6] 100 % of control | [7] 98 % of control

Cc1ccc([N+](=O)[O-])cc1NC(=O)Nc1onc(C)c1C
inactive: dose: 50.0 mg/kg/injection, schedule: Q01DX009 (ip), vehicle: Klucel (hydroxypropylcellulose) (HPC) 90 % of control | [8] 87 % of control

C[N+](C)(C)C1CCCCC1
inactive: [9] 110 % of control and 106 % of control | [10] 105 % of control and 106 % of control

COc1ccccc1/C=c1\[nH]c(=O)/c(=C/c2ccccc2OC)[nH]c1=O
inactive: [11] 88 % of control | [12] 101 % of control | [8] 86 % of control | [13] 101 % of control | [14] 86 % of control | [15] 98 % of control

CC(C)(C)C(=O)Nc1ccc(NS(=O)(=O)c2ccccc2)cc1
inactive: [2] 102 % of control | [4] 89 % of control | [6] 88 % of control

Cc1cccc(C)c1NC(=O)N1CCN(C)CC1
inactive: dose: 25.0 mg/kg/injection, schedule: Q04DX002 (ip), vehicle: saline with Tween-80 108 % of control | dose: 50.0 mg/kg/injection, schedule: Q04DX002 (ip), vehicle: saline with Tween-80 111 % of control | [11] 108 % of control | dose: 100.0 mg/kg/injection, schedule: Q04DX002 (ip), vehicle: Klucel (hydroxypropylcellulose) (HPC) 88 % of control | dose: 100.0 mg/kg/injection, schedule: Q04DX002 (ip), vehicle: saline with Tween-80 101 % of control | [8] 103 % of control

OC(Cc1ccnc2ccccc12)C(Cl)(Cl)Cl (stereo not given)
inactive: [16] 95 % of control | dose: 200.0 mg/kg/injection, schedule: Q01DX009 (ip), vehicle: saline 101 % of control | dose: 400.0 mg/kg/injection, schedule: Q01DX009 (ip), vehicle: saline 95 % of control

NCCCN=C(N)C(N)=NCCCN
inactive: [3] 98 % of control | [5] 95 % of control | [7] 104 % of control

O=[N+]([O-])c1cc([N+](=O)[O-])c(NC(c2ccccc2)C(O)c2ccccc2)c([N+](=O)[O-])c1 (stereo not given)
inactive: dose: 100.0 mg/kg/injection, schedule: Q04DX003 (ip), vehicle: acetone 98 % of control | dose: 200.0 mg/kg/injection, schedule: Q04DX003 (ip), vehicle: acetone 96 % of control | dose: 400.0 mg/kg/injection, schedule: Q04DX003 (ip), vehicle: acetone 93 % of control

C1C[S][Sn]2([S]CCO1)[S]CCOCC[S]2
inactive: dose: 12.5 mg/kg/injection, schedule: Q01DX001 (ip), vehicle: saline with Tween-80 94 % of control | dose: 25.0 mg/kg/injection, schedule: Q01DX001 (ip), vehicle: saline with Tween-80 106 % of control | dose: 50.0 mg/kg/injection, schedule: Q01DX001 (ip), vehicle: saline with Tween-80 87 % of control

Cc1ccccc1C(C)C
inactive: [2] 94 % of control | [4] 98 % of control | [6] 91 % of control

CN(C)C(=O)OCC[N+](C)(C)CCCCCC[N+](C)(C)CCOC(=O)N(C)C
inactive: dose: 12.0 mg/kg/injection, schedule: Q04DX003 (ip), vehicle: saline 105 % of control | dose: 25.0 mg/kg/injection, schedule: Q04DX003 (ip), vehicle: saline 96 % of control | dose: 50.0 mg/kg/injection, schedule: Q04DX003 (ip), vehicle: saline 97 % of control | dose: 75.0 mg/kg/injection, schedule: Q04DX003 (ip), vehicle: saline 92 % of control

Cc1sc2ccc(-c3ccccc3)cc2[n+]1C
inactive: [9] 105 % of control | [10] 102 % of control | dose: 300.0 mg/kg/injection, schedule: Q01DX001 (ip), vehicle: saline 107 % of control

Cc1c(Cl)cccc1NC(=O)Oc1cc(Cl)c(Cl)cc1Cl
inactive: dose: 50.0 mg/kg/injection, schedule: Q01DX009 (ip), vehicle: saline with Tween-80 92 % of control | [1] 96 % of control | [2] 95 % of control | [4] 106 % of control

O=C1C=C(O)c2ccc(=O)[nH]c2C1=O
inactive: [17] 95 % of control | [18] 98 % of control

Cn1c(C[N+](C)(C)C)cc2ccccc21
inactive: [2] 104 % of control | [4] 96 % of control

CC(=O)Nc1ccc(OC(=O)Nc2c(C)cccc2C)cc1
inactive: [12] 100 % of control | [13] 91 % of control | [15] 91 % of control

CCCC[P+](CCCC)(CCCC)C(C)C
inactive: dose: 12.0 mg/kg/injection, schedule: Q01DX009 (ip), vehicle: saline with Tween-80 97 % of control | dose: 25.0 mg/kg/injection, schedule: Q01DX009 (ip), vehicle: saline with Tween-80 97 % of control | dose: 25.0 mg/kg/injection, schedule: Q04DX003 (ip), vehicle: saline with Tween-80 101 % of control | dose: 50.0 mg/kg/injection, schedule: Q04DX003 (ip), vehicle: saline with Tween-80 99 % of control

CCCCC(CC)(CCN)CCCC
inactive: dose: 5.0 mg/kg/injection, schedule: Q01DX001 (ip), vehicle: carboxymethylcellulose (CMC) 102 % of control | dose: 10.0 mg/kg/injection, schedule: Q01DX001 (ip), vehicle: carboxymethylcellulose (CMC) 104 % of control | dose: 20.0 mg/kg/injection, schedule: Q01DX001 (ip), vehicle: carboxymethylcellulose (CMC) 91 % of control

CCCCCCCCC(=O)NCCCOC
inactive: [11] 108 % of control | [12] 96 % of control | [8] 111 % of control | [13] 91 % of control | [14] 97 % of control | [15] 91 % of control

C=CCN(CC=C)CC=C
inactive: dose: 25.0 mg/kg/injection, schedule: Q01DX009 (ip), vehicle: saline 100 % of control | dose: 50.0 mg/kg/injection, schedule: Q01DX009 (ip), vehicle: saline 97 % of control | [16] 100 % of control

OCC(F)(F)C(F)(F)C(F)(F)C(F)F
inactive: dose: 50.0 mg/kg/injection, schedule: Q01DX001 (ip), vehicle: saline 94 % of control | [17] 102 % of control | [11] 101 % of control | [12] 102 % of control | [18] 96 % of control | [8] 101 % of control | [13] 102 % of control | dose: 400.0 mg/kg/injection, schedule: Q01DX001 (ip), vehicle: saline 94 % of control | [14] 103 % of control | [15] 105 % of control

COC(=O)C/C(=C\c1ccc(OC)c(OC)c1)C(=O)OC
inactive: [11] 100 % of control | [12] 91 % of control | [8] 94 % of control | [13] 95 % of control | [14] 103 % of control | [15] 96 % of control
